PubChem BioAssay (NCI)
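Step 1: Grow cells in 96-well plates. Step 2: Expose to compound for 48 hours at 5 concentrations. Step 3: Interpolate endpoints linearly; if unreached, use highest concentration. The concentration for 50% growth inhibition is given as GI50. The concentration for full growth arrest is given as TGI.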

What was measured:
Test in all cases: NCI-60 cell line screen, 48 h
EKVX NSCLC = system: EKVX NSCLC
OVCAR-8 ovarian = system: OVCAR-8 ovarian
HOP-92 NSCLC = system: HOP-92 NSCLC
A549 NSCLC = system: A549 NSCLC
HCT-116 colon = system: HCT-116 colon
OVCAR-5 ovarian = system: OVCAR-5 ovarian
IGROV1 ovarian = system: IGROV1 ovarian
UACC-62 melanoma = system: UACC-62 melanoma
SF-268 CNS = system: SF-268 CNS
ACHN renal = system: ACHN renal

Compound | TGI (EKVX NSCLC) [µM] | TGI (OVCAR-8 ovarian) [µM] | TGI (HOP-92 NSCLC) [µM] | TGI (A549 NSCLC) [µM] | TGI (HCT-116 colon) [µM] | TGI (OVCAR-5 ovarian) [µM] | TGI (IGROV1 ovarian) [µM] | TGI (UACC-62 melanoma) [µM] | TGI (SF-268 CNS) [µM] | TGI (ACHN renal) [µM] | GI50 (EKVX NSCLC) [µM] | GI50 (OVCAR-8 ovarian) [µM] | GI50 (HOP-92 NSCLC) [µM] | GI50 (A549 NSCLC) [µM] | GI50 (HCT-116 colon) [µM] | GI50 (IGROV1 ovarian) [µM] | GI50 (UACC-62 melanoma) [µM] | GI50 (SF-268 CNS) [µM] | GI50 (ACHN renal) [µM]
C=C1C(=O)OC2/C=C(\C)CC(O)/C=C(/CO)CC(OC(=O)/C(C)=C/C)C12 (stereo unspecified) | 59.1 | 122 | 111 | 451 | 115 | 297 | 121 | 274 | 233 |  |  |  |  |  |  |  |  |  | 
CCCCOc1ccc(S(=O)(=O)/N=C(\NN)Nc2ccc(Cl)cc2)cc1 | > 100 | 36.2 | 67.2 | 36.6 | 42.9 | 52.9 | 60.2 | > 100 | 33 | > 100 |  |  |  |  |  |  |  |  | 
C[C@]12CC[C@H](O)CC1=CC[C@@H]1[C@@H]2CC[C@]2(C)C(=O)CC[C@@H]12 | > 100 | > 100 |  | > 100 | > 100 | > 100 |  | > 100 | > 100 | > 100 |  |  |  |  |  |  |  |  | 
NC1=NS(=O)(=O)Nc2nc(-c3cccs3)[nH]c21 |  | > 100 | > 100 | > 100 | > 100 | > 100 | > 100 | > 100 | > 100 | > 100 |  |  |  |  |  |  |  |  | 
Cc1onc(-c2c(F)cccc2Cl)c1C(=O)N[C@@H]1C(=O)N2[C@@H]1SC(C)(C)[C@@H]2C(=O)O | > 100 | > 100 | > 100 | > 100 | > 100 | > 100 | > 100 | > 100 | > 100 | > 100 |  |  |  |  |  |  |  |  | 
FC(F)(F)C1=NC(=NNc2nnc(-c3ccccc3)c(-c3ccccc3)n2)N=C(C(F)(F)F)C1 | > 100 | > 100 | > 87.3 | > 100 | > 93.6 | > 100 | > 100 | 30 | > 100 |  |  |  |  |  |  |  |  |  | 
COc1ccc(-n2cc(-c3ccc(OC)c(OC)c3)nc2SCc2ccccc2)cc1Cl | 64.7 | > 100 | 38.6 | > 100 | > 100 |  | > 100 | > 100 | > 100 | > 100 | 13.8 | 25.9 | 6.13 | 21.3 | 9.43 | 12.9 | 20.8 | 30.4 | 38.9
O=c1cc(-c2nc3ccccc3[nH]2)[nH]c2nc(-c3nc4ccccc4[nH]3)cc(-c3ccc(Cl)cc3)c12 | > 100 | > 100 | 55 | 87.2 | 35.2 | 54.3 | 25.5 | 33.2 | 47.5 | 41.6 |  |  |  |  |  |  |  |  | 
CO[C@]12C[C@H](CNC(=O)c3cc(Br)c(Br)[nH]3)O[C@H]1NC(=O)N2 | > 100 | > 100 | > 100 | > 100 | > 100 | > 100 | > 100 | > 100 | > 100 | > 100 |  |  |  |  |  |  |  |  | 
Cc1ccc(S(=O)(=O)NCCSS(=O)(=O)c2ccc(C)cc2)cc1 |  | > 100 | > 100 | 63.5 | 28.3 |  |  |  | 46.3 | > 100 |  |  |  |  |  |  |  |  | 
OC1(c2ccc3ccccc3c2)c2ccc3ccccc3c2C2=NCCN21 (stereo unspecified) | > 100 | 82.2 | > 100 | > 100 | > 100 | > 100 | > 100 | > 100 | > 100 | > 100 |  |  |  |  |  |  |  |  | 
CC[N+](CC)(CC)/C(=N/S(=O)(=O)c1cc(C)c(Cl)cc1S)[N-]S(=O)(=O)c1ccc(Cl)cc1 | > 100 | > 100 | 49.7 |  | 65.6 | > 100 | > 100 |  | > 100 | > 100 |  |  |  |  |  |  |  |  | 
CCCC(=O)OCC(O)CO (stereo unspecified) |  | > 5000 | > 5000 | > 5000 | > 5000 | 4700 | > 5000 | > 5000 | > 5000 | > 5000 |  |  |  |  |  |  |  |  | 
